Experimental data as given in ChEMBL document CHEMBL1121904, “Potential antitumor agents. 35. Quantitative relationships between antitumor (L1210) potency and DNA binding for 4'-(9-acridinylamino)methanesulfon-m-anisidide analogues” (J Med Chem, 1981).

Experiments:
Calf thymus DNA = conditions: Bos taurus
Description: Association constant measured for binding towards poly[d(A-T)] of DNA in calf thymus

Description for physchem: Ionisation constant (pKa)

SMILES | Log K (Calf thymus DNA) | pKa (physchem)
COc1cc(NS(C)(=O)=O)ccc1Nc1c2ccccc2nc2c([N+](=O)[O-])cccc12 | 5.2 | 5.05
CCCCNC(=O)c1cccc2c(Nc3ccc(NS(C)(=O)=O)cc3OC)c3ccccc3nc12 | 5.4 | 
COc1cc(NS(C)(=O)=O)ccc1Nc1c2ccccc2nc2c(C(=O)NCC(C)O)cccc12 (stereo not given) | 5.34 | 6.2
COc1cc(NS(C)(=O)=O)ccc1Nc1c2ccccc2nc2c(F)cccc12 | 5.65 | 6.33
COc1cc(NS(C)(=O)=O)ccc1Nc1c2ccccc2nc2cc(C(F)(F)F)ccc12 | 5.24 | 6.24
COC(=O)Nc1ccc2c(Nc3ccc(NS(C)(=O)=O)cc3OC)c3ccccc3nc2c1 | 6.37 | 7.77
COc1cc(NS(C)(=O)=O)ccc1Nc1c2ccccc2nc2c(Cl)cccc12 | 5.76 | 6.11
COc1cc(NS(C)(=O)=O)ccc1Nc1c2ccccc2nc2ccc(I)cc12 | 5.7 | 6.6
COc1cc(NS(C)(=O)=O)ccc1Nc1c2ccccc2nc2ccc(C)cc12 | 5.35 | 7.45
COc1cc(NS(C)(=O)=O)ccc1Nc1c2ccccc2nc2cc(C)ccc12 | 5.95 | 7.7
COc1cc(NS(C)(=O)=O)ccc1Nc1c2ccccc2nc2c(C(=O)NCC(N)=O)cccc12 | 5.39 | 
COc1ccc2c(Nc3ccc(NS(C)(=O)=O)cc3OC)c3ccccc3nc2c1 | 5.83 | 7.81
COc1cc(NS(C)(=O)=O)ccc1Nc1c2ccccc2nc2cc(C#N)ccc12 | 5.65 | 5.94
COc1cc(NS(C)(=O)=O)ccc1Nc1c2ccccc2nc2c(OC)cccc12 | 5.94 | 7.39
COc1cc(NS(C)(=O)=O)ccc1Nc1c2ccccc2nc2cc(I)ccc12 | 6.35 | 6.77
COc1cc(NS(C)(=O)=O)ccc1Nc1c2ccccc2nc2cnccc12 | 5.09 | 5.53
COc1cc(NS(C)(=O)=O)ccc1Nc1c2ccccc2nc2cc(Cl)ccc12 | 6.06 | 6.84
COc1cc(NS(C)(=O)=O)ccc1Nc1c2ccccc2nc2cc(C(N)=O)ccc12 | 5.66 | 6.66
COc1cc(NS(C)(=O)=O)ccc1Nc1c2ccccc2nc2ccc(N)cc12 | 5.95 | 7.37
COc1cc(NS(C)(=O)=O)ccc1Nc1c2ccccc2nc2c(C)cccc12 | 6.03 | 7.39
COc1cc(NS(C)(=O)=O)ccc1Nc1c2ccccc2nc2c(OCCCC(N)=O)cccc12 | 5.74 | 7.36
COc1cc(NS(C)(=O)=O)ccc1Nc1c2ccccc2nc2c(C(=O)N(C)C)cccc12 | 5.04 | 
COc1cc(NS(C)(=O)=O)ccc1Nc1c2ccccc2nc2c(C(=O)NCCCO)cccc12 | 5.4 | 6.3
COc1cc(NS(C)(=O)=O)ccc1Nc1c2ccccc2nc2ccc(F)cc12 | 5.28 | 6.71

SMILES | Log K (Calf thymus DNA) | pKa (physchem)
COc1cc(NS(C)(=O)=O)ccc1Nc1c2ccccc2nc2c(C(=O)NCC(O)CO)cccc12 (stereo not given) | 5.26 | 
COc1cc(NS(C)(=O)=O)ccc1Nc1c2ccccc2nc2c(OCCO)cccc12 | 5.74 | 7.36
COc1cc(NS(C)(=O)=O)ccc1Nc1c2ccccc2nc2cc(N)ccc12 | 6.21 | 9.92
COc1cc(NS(C)(=O)=O)ccc1Nc1c2ccccc2nc2cc([N+](=O)[O-])ccc12 | 5.65 | 
CNC(=O)c1cccc2c(Nc3ccc(NS(C)(=O)=O)cc3OC)c3ccccc3nc12 | 5.54 | 
COc1cc(NS(C)(=O)=O)ccc1Nc1c2ccccc2nc2c(-c3ccccc3)cccc12 | 5.6 | 7.02
COc1cc(NS(C)(=O)=O)ccc1Nc1c2ccccc2nc2c(C(N)=O)cccc12 | 5.47 | 
COc1cc(NS(C)(=O)=O)ccc1Nc1c2ccccc2nc2ccc(C(C)C)cc12 | 5.39 | 7.4
COc1cc(NS(C)(=O)=O)ccc1Nc1c2ccccc2nc2cc(C(C)C)ccc12 | 5.46 | 7.66
C=NC(=O)CCc1cccc2c(Nc3ccc(NS(C)(=O)=O)cc3OC)c3ccccc3nc12 | 5.65 | 7.15
CCc1ccc2c(Nc3ccc(NS(C)(=O)=O)cc3OC)c3ccccc3nc2c1 | 5.66 | 7.65
COc1cc(NS(C)(=O)=O)ccc1Nc1c2ccccc2nc2cc(Br)ccc12 | 6.29 | 6.84
COc1cc(NS(C)(=O)=O)ccc1Nc1c2ccccc2nc2ncccc12 | 5.27 | 
COc1cc(NS(C)(=O)=O)ccc1Nc1c2ccccc2nc2c(Br)cccc12 | 5.57 | 6.09
COc1cc(NS(C)(=O)=O)ccc1Nc1c2ccccc2nc2c(C(=O)N3CCOCC3)cccc12 | 4.96 | 6.03
COc1cc(NS(C)(=O)=O)ccc1Nc1c2ccccc2nc2c(OCC(O)CO)cccc12 (stereo not given) | 5.9 | 7.3
CNc1ccc2c(Nc3ccc(NS(C)(=O)=O)cc3OC)c3ccccc3nc2c1 | 6.17 | 10.1
COc1cc(NS(C)(=O)=O)ccc1Nc1c2ccccc2nc2c(C#N)cccc12 | 5.01 | 4.87
COc1cc(NS(C)(=O)=O)ccc1Nc1c2ccccc2nc2c(C(=O)NCCO)cccc12 | 5.42 | 6.27
CNC(=O)COc1cccc2c(Nc3ccc(NS(C)(=O)=O)cc3OC)c3ccccc3nc12 | 5.8 | 7.35
COc1cc(NS(C)(=O)=O)ccc1Nc1c2ccccc2nc2cc(NC(C)=O)ccc12 | 6.24 | 
CCOc1cccc2c(Nc3ccc(NS(C)(=O)=O)cc3OC)c3ccccc3nc12 | 5.77 | 7.37
COc1cc(NS(C)(=O)=O)ccc1Nc1c2ccccc2nc2cc(F)ccc12 | 5.54 | 7.05
